Measured values reported in patent publication US9840465B2 (priority 2013, dated 2017).
Read-outs that look alike come from different tables or passages of the source.

How the values were obtained:
[1] = system: Influenza A/California/07/2009 (H1N1), M2 S31N; details: cited from earlier work
[2] = system: A/WS/33 (H1N1), M2 S31N; type: cell-based, Influenza A virus
[3] = system: Influenza A/Victoria/3/75 (H3N2); experiment: microbe, parasite or virus in culture; type: cell-based
[4] = molecular target: M2 22-62 (S31N) (Influenza A virus, UniProt P0DOF5, C50S/S31N); type: biochemical
[5] = system: A/PR/8/34 (H1N1), M2 V27T/S31N; type: cell-based, Influenza A virus
[6] = system: Influenza A/California/07/2009 (H1N1), M2 S31N; type: cell-based, Influenza A virus
[7] = system: Influenza A/California/07/2009 (H1N1); type: cell-based, Influenza A virus; details: read-out: EC50 against the passage 12 7-resistant mutant
[8] = read-out: EC50 A/Calif/07/09 (H1N1)
[9] = read-out: EC50s of the drug components of the incubation mixture

In the case of `NC12CC3CC(CC(C3)C1)C2` [Amantadine (1), Amantadine, reference compound], the “activity against H1N1 (2009) (known)” value [1] is listed as “inactive”, the EC50 [2] is listed as 24 µM and the “EC50 ± S.E. (μM)” value [3] is listed as “Inactive”. For the same compound, the Resistance development [3] was “complete during a single 3-4 day passage”, the EC50 ([3]; Influenza A virus, H3N2, read-out: EC50 ± S.E. (μM)) was 2.8 ± 0.3 µM and the “H^+ Uptake Rate ± SD (%) (N)” value [4] was 77 ± 29 (8) %. The EC50 [5] was 24 µM, the EC50 [6, 8] was 240 µM and the EC50 ([6]; read-out: EC50 ± SE (μM) (N)) was 242 µM.

With `O=C1CCC2(N1)C1CC3CC(C1)CC2C3` (stereo not shown) [Compound 3] the EC50 ([6]; read-out: EC50 ± SE (μM) (N)) was 15.6 µM.

For `C1CCC2(NC1)C1CC3CC(C1)CC2C3` (stereo not shown) [Compound 6], the “H^+ Uptake Rate ± SD (%) (N)” value [4] was 1.3 ± 5.7 (6) % and the EC50 ([6]; read-out: EC50 ± SE (μM) (N)) was 19.8 µM.

In the case of `CCCC1(N)C2CC3CC(C2)CC1C3` (stereo not shown) [Compound 7], the EC50 [2] is reported as 390 µM, the “H^+ Uptake Rate ± SD (%) (N)” value [4] is reported as 24 ± 17 (6) % and the EC50 [5] is reported as 0.5 µM. It also gave an EC50 [6, 8] of 4.7 µM and an EC50 ([6]; read-out: EC50 ± SE (μM) (N)) of 4.71 µM.

For `C1CNC(C23CC4CC(CC(C4)C2)C3)C1` (stereo not shown) [Compound 8], the “H^+ Uptake Rate ± SD (%) (N)” value [4] was 12 ± 13 (5) % and the EC50 ([6]; read-out: EC50 ± SE (μM) (N)) was 15.4 µM.

In the case of `NC1(C23CC4CC(CC(C4)C2)C3)CCCC1` [Compound 9], the EC50 [7] is reported as 22 ± 2 µM, the “H^+ Uptake Rate ± SD (%) (N)” value [4] is reported as 11 ± 25 (3) % and the EC50 [6, 9] is reported as 0.36 µM. It also gave an EC50 ([6]; read-out: EC50 ± SE (μM) (N)) of 0.79 µM.

For `C1CCC(C23CC4CC(CC(C4)C2)C3)NC1` (stereo not shown) [Compound 10], the EC50 [6, 9] was 2.8 µM and the EC50 ([6]; read-out: EC50 ± SE (μM) (N)) was 7 µM.

For `CC12CC3CC(CC(C3)C13CCCN3)C2` [Compound 11, (1r,3s,5R,7S)-1-methylspiro[adamantane-2,2′-pyrrolidine]], the “H^+ Uptake Rate ± SD (%) (N)” value [4] was 17 ± 8.7 (6) % and the EC50 ([6]; read-out: EC50 ± SE (μM) (N)) was 36 µM.

For `NCCN1CCCC12C1CC3CC(C1)CC2C3` (stereo not shown) [Compound 12, 2-((1r,3r,5r,7r)-spiro[adamantane-2,2′-pyrrolidin]-1′-yl)ethan-1-amine], the “H^+ Uptake Rate ± SD (%) (N)” value [4] was 11 ± 18 (4) % and the EC50 ([6]; read-out: EC50 ± SE (μM) (N)) was 2.66 µM.

Work on `NC1(C23CC4CC(CC(C4)C2)C3)CCCCC1` [Compound 13, 1-((3r,5r,7r)-adamantan-1-yl)cyclohexan-1-amine] yielded an EC50 [7] of 10 ± 2 µM and an EC50 ([6]; read-out: EC50 ± SE (μM) (N)) of 3.62 µM.

Compound `CCCCC1(N)C2CC3CC(C2)CC1C3` (stereo not shown) [Compound 17, (1r,3r,5r,7r)-2-butyladamantan-2-amine] has an EC50 [2] of 355 µM, an EC50 [5] of 0.3 µM and an EC50 [6, 8] of 8.5 µM.

With `CC(C)CC1(N)C2CC3CC(C2)CC1C3` (stereo not shown) [Compound 18, (1r,3r,5r,7r)-2-isobutyladamantan-2-amine] the EC50 [2] was 210 µM, the EC50 [5] was 0.3 µM and the EC50 [6, 8] was 8 µM.

`NC1(c2ccccc2)C2CC3CC(C2)CC1C3` (stereo not shown) [Compound 19, (1r,3r,5r,7r)-2-phenyladamantan-2-amine] showed an EC50 [2] of 86 µM, an EC50 [5] of less than 0.3 µM and an EC50 [6, 8] of 21 µM. The EC50 [6, 9] was 9.2 µM.

`NC1(Cc2ccccc2)C2CC3CC(C2)CC1C3` (stereo not shown) [Compound 20, (1r,3r,5r,7r)-2-benzyladamantan-2-amine] gave an EC50 [2] of 280 µM, an EC50 [5] of 1.2 µM and an EC50 [6, 8] of 8.6 µM.

For `CCCCCCC1(N)C2CC3CC(C2)CC1C3` (stereo not shown) [Compound 101, 2-n-hexyl-tricyclo[3.3.1.1^3,7]decan-2-amine], the EC50 [2] was 13 µM, the “inhibition of the A/WS/33 strain (in words)” value [2] was “some inhibitory effect” and the EC50 [5] was 0.07 µM. It also gave an EC50 [6, 8] of 0.13 µM.

With `CC(C)(N)C12CC3CC(CC(C3)C1)C2` [Compound 259, 2-(adamantan-1-yl)propan-2-amine] the EC50 [2] was 300 µM, the EC50 [5] was less than 0.2 µM and the EC50 [6, 8] was 24 µM.

In the case of `CC1CCC2(N1)C1CC3CC(C1)CC2C3` (stereo not shown) [Compound 341, 5-methylspiro[pyrrolidine-2,2′-tricyclo[3.3.1.1^3,7]decane]], the “efficacy against A/California/07/2009 (in words)” value [6] is reported as “less effective than the others” and the EC50 [6, 8] is reported as 34 µM.

`CC1CNC2(C1)C1CC3CC(C1)CC2C3` (stereo not shown) [Compound 342, 4-Methylspiro[pyrrolidine-2,2′-tricyclo[3.3.1.1^3,7]decane]] gave an EC50 [6, 8] of 9.5 µM.

In the case of `CC1CCNC12C1CC3CC(C1)CC2C3` (stereo not shown) [Compound 343, 3-Methylspiro[pyrrolidine-2,2′-tricyclo[3.3.1.1^3,7]decane]], the EC50 [6, 8] is reported as 7.2 µM.

With `CC1CCC2(C3CC4CC(C3)CC2C4)N1C` (stereo not shown) [Compound 344, 1,5-Dimethylspiro[pyrrolidine-2,2′-tricyclo[3.3.1.1^3,7]decane]] the EC50 [6, 8] was 7.7 µM.

Work on `CC1CN(C)C2(C1)C1CC3CC(C1)CC2C3` (stereo not shown) [Compound 345, 1,4-dimethylspiro[pyrrolidine-2,2′-tricyclo [3.3.1.1^3,7]decane]] yielded an EC50 [6, 8] of 7 µM.

For `CC1CCN(C)C12C1CC3CC(C1)CC2C3` (stereo not shown) [Compound 346, 1,3-dimethylspiro[pyrrolidine-2,2′-tricyclo [3.3.1.1^3,7]decane]], the EC50 [6, 8] was 10.2 µM.

`CCC1CCC2(N1)C1CC3CC(C1)CC2C3` (stereo not shown) [Compound 347, 5-ethylspiro[pyrrolidine-2,2′-tricyclo[3.3.1.1^3,7]decane]] gave an EC50 [6, 8] of 8.7 µM.

In the case of `CC(N)C12CC3CC(CC(C3)C1)C2` (stereo not shown) [Rimantadine (2), Rimantadine, reference compound], the “activity against H1N1 (2009) (known)” value [1] is given as “inactive”, the EC50 [2] is given as 310 µM and the EC50 [5] is given as 3.3 µM. The EC50 [6, 8] was 110 µM and the EC50 ([6]; read-out: EC50 ± SE (μM) (N)) was 106 µM.
